Measured values from publication doi:10.1101/2021.04.08.439011v1 (biorxiv, 2021).
Where two headings read alike, the source gives them in different places.

Experiments:
HCK = HCK (Homo sapiens, UniProt P08631); conditions: 0.1 µM; binder
ITK = ITK (Homo sapiens, UniProt Q08881); conditions: 0.1 µM; binder
CSNK2A1 = CSNK2A1 (Homo sapiens, UniProt P68400); conditions: 0.1 µM; binder
INSR = INSR (Homo sapiens, UniProt P06213); conditions: 0.1 µM; binder
CSNK1D = CSNK1D (Homo sapiens, UniProt P48730); conditions: 0.1 µM; binder
ULK3 = ULK3 (Homo sapiens, UniProt Q6PHR2); conditions: 0.1 µM; binder
LYN = LYN (Homo sapiens, UniProt P07948); conditions: 0.1 µM; binder
PLK3 = PLK3 (Homo sapiens, UniProt Q9H4B4); conditions: 0.1 µM; binder
CSNK1A1L = CSNK1A1L (Homo sapiens, UniProt Q8N752); conditions: 0.1 µM; binder
FGFR4 = FGFR4 (Homo sapiens, UniProt P22455); conditions: 0.1 µM; binder
EPHB1 = EPHB1 (Homo sapiens, UniProt P54762); conditions: 0.1 µM; binder
YANK2 = YANK2 (Homo sapiens, UniProt Q9NY57); conditions: 0.1 µM; binder
CDK3 = CDK3 (Homo sapiens, UniProt Q00526); conditions: 0.1 µM; binder
MAPKAPK5 = MAPKAPK5 (Homo sapiens, UniProt Q8IW41); conditions: 0.1 µM; binder
DDR1 = DDR1 (Homo sapiens, UniProt Q08345); conditions: 0.1 µM; binder
MYO3B = MYO3B (Homo sapiens, UniProt Q8WXR4); conditions: 0.1 µM; binder
ABL2 = ABL2 (Homo sapiens, UniProt P42684); conditions: 0.1 µM; binder
CAMK2D = CAMK2D (Homo sapiens, UniProt Q13557); conditions: 0.1 µM; binder
FAK = FAK (Homo sapiens, UniProt Q05397); conditions: 0.1 µM; binder
DMPK2 = DMPK2 (Homo sapiens, UniProt Q6DT37); conditions: 0.1 µM; binder
ABL1(F317L) = ABL1(F317L) (Homo sapiens, UniProt P00519, F317L); conditions: 0.1 µM, binder
HIPK1 = HIPK1 (Homo sapiens, UniProt Q86Z02); conditions: 0.1 µM; binder
SNARK = SNARK (Homo sapiens, UniProt Q9H093); conditions: 0.1 µM; binder
BIKE = BIKE (Homo sapiens, UniProt Q9NSY1); conditions: 0.1 µM; binder
FRK = FRK (Homo sapiens, UniProt P42685); conditions: 0.1 µM; binder
ABL1(Q252H) = ABL1(Q252H) (Homo sapiens, UniProt P00519, Q252H); conditions: 0.1 µM, binder
PRKCD = PRKCD (Homo sapiens, UniProt Q05655); conditions: 0.1 µM; binder
YANK1 = YANK1 (Homo sapiens, UniProt Q8WU08); conditions: 0.1 µM; binder
SgK110 = SgK110 (Homo sapiens, UniProt P0C264); conditions: 0.1 µM; binder
MAPKAPK2 = MAPKAPK2 (Homo sapiens, UniProt P49137); conditions: 0.1 µM; binder
WEE1 = WEE1 (Homo sapiens, UniProt P30291); conditions: 0.1 µM; binder
WEE1, sequence (P30291 whole entry): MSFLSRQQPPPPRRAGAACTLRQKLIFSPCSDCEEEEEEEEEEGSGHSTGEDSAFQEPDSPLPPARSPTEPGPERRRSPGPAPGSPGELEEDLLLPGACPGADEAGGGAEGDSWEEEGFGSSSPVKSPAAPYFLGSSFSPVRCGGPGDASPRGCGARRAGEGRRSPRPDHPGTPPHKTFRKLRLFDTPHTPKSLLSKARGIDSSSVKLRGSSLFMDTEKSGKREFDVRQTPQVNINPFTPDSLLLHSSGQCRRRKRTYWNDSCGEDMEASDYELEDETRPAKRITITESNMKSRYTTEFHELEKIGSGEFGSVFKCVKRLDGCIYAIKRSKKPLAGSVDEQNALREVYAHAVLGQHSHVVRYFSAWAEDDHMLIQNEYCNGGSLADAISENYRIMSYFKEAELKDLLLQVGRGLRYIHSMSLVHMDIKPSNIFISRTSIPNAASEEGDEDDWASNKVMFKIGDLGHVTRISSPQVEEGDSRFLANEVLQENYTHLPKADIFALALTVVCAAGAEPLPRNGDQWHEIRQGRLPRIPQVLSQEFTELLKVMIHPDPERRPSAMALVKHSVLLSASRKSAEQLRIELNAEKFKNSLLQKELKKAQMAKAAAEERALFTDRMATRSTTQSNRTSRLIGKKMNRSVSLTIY

YANK2, sequence (Q9NY57 whole entry): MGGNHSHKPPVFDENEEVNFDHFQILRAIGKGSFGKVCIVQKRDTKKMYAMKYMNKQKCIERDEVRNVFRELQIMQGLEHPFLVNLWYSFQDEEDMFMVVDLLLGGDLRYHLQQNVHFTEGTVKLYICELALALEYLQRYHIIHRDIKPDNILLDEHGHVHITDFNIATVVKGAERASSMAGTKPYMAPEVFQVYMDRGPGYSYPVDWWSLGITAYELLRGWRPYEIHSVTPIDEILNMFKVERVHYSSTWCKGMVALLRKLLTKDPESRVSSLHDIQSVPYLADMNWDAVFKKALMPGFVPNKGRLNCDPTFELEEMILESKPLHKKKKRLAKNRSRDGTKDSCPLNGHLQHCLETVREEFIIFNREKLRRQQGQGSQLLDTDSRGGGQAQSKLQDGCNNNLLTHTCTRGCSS
YANK1, sequence (Q8WU08 whole entry): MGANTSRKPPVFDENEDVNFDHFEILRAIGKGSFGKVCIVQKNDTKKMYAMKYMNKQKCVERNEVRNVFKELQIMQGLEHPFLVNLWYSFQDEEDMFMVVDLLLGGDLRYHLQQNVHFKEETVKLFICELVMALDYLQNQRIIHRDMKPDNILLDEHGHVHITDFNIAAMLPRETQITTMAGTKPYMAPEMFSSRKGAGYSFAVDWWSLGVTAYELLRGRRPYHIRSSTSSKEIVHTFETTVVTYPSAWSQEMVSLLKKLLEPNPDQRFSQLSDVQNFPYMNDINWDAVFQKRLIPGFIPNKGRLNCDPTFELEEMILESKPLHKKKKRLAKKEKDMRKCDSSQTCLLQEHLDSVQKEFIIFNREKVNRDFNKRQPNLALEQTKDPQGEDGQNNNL
MYO3B, sequence (Q8WXR4 whole entry): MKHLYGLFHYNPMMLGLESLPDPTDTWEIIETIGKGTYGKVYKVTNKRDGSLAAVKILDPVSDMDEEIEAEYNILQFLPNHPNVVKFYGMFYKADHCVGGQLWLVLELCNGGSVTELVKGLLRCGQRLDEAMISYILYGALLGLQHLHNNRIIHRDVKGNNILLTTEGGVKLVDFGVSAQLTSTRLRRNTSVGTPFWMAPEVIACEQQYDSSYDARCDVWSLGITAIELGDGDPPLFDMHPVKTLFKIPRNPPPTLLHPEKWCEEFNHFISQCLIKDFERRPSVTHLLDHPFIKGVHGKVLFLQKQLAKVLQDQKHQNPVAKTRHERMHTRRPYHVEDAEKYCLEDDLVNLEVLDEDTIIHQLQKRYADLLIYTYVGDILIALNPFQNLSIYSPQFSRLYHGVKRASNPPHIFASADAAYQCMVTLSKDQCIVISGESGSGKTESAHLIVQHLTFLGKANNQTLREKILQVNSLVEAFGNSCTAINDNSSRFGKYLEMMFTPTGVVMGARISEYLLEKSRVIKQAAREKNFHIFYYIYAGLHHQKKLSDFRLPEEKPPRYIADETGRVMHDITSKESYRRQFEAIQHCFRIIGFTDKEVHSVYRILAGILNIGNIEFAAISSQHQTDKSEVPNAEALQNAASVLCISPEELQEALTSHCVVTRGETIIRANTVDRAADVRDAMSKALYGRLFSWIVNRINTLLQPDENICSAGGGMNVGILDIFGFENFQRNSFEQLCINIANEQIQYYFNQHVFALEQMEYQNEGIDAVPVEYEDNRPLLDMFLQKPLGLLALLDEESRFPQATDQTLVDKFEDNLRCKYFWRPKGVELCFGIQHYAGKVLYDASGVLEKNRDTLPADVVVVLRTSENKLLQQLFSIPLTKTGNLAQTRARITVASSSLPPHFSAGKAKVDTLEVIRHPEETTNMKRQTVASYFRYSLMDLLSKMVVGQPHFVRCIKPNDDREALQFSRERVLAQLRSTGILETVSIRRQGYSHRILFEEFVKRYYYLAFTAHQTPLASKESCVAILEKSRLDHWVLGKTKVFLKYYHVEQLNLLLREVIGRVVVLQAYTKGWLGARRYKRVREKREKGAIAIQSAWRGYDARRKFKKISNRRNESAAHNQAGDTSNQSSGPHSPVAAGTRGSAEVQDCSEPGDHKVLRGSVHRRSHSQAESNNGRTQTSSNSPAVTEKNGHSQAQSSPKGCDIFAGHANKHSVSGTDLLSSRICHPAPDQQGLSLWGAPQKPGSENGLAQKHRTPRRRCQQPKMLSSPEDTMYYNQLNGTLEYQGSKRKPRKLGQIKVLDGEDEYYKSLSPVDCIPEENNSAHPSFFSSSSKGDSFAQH
CSNK1D, sequence (P48730 whole entry): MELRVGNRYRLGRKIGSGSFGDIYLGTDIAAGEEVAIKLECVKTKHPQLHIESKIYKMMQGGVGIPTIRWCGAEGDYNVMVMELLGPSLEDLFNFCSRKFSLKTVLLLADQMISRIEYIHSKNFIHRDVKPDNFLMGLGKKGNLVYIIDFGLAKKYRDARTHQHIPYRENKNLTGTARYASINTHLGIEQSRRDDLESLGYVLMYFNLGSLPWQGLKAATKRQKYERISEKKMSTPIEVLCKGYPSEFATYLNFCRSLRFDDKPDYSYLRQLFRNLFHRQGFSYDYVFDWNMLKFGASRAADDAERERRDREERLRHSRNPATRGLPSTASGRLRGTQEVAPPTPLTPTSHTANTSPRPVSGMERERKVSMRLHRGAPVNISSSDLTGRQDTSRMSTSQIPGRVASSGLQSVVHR
FGFR4, sequence (P22455 whole entry): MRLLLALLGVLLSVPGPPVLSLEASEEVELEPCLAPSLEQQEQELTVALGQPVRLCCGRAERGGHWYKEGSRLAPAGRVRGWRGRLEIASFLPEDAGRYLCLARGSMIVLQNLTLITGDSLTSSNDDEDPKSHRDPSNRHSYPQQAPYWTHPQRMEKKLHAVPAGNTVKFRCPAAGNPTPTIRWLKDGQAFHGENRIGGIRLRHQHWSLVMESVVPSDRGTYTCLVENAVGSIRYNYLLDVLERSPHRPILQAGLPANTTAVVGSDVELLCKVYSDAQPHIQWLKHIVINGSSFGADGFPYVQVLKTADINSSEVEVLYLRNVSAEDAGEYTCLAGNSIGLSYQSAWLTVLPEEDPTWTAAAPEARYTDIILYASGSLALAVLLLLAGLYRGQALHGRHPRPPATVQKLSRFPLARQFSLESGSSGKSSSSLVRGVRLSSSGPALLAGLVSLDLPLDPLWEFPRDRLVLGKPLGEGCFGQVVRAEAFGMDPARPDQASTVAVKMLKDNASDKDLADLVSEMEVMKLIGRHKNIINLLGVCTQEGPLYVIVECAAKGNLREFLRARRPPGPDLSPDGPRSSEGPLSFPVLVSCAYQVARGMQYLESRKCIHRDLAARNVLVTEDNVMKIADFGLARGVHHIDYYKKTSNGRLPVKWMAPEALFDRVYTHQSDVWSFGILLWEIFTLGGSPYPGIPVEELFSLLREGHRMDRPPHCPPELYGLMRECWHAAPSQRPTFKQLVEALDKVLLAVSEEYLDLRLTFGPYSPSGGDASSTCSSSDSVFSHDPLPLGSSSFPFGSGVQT
SgK110, sequence (P0C264 whole entry): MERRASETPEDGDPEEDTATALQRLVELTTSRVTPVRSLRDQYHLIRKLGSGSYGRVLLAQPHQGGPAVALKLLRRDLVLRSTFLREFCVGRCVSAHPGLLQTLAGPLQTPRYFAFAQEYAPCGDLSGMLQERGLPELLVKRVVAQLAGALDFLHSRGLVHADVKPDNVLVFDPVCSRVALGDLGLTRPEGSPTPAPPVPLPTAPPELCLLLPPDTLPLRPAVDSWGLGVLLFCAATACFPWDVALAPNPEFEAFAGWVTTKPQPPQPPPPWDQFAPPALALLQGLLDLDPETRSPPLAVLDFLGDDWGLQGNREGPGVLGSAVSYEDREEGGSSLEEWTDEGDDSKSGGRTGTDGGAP
CSNK2A1, sequence (P68400 whole entry): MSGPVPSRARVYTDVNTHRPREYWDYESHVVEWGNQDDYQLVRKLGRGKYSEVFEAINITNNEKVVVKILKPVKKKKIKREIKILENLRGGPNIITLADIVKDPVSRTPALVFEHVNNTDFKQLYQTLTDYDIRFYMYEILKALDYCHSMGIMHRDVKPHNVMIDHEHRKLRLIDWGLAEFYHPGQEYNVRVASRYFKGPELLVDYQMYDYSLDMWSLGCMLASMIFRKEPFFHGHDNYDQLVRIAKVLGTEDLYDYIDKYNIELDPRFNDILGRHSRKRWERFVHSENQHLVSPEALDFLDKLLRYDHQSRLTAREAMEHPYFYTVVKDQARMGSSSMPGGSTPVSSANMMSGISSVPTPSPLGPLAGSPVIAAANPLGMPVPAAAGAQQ

CNc1ncc2cc(-c3ccc(-c4cccc(C)n4)cc3Cl)c(=O)n(C[C@H]3OC[C@H](N)CO3)c2n1 [compound 6, G-5555]
Percent Control (HCK): 100% | Percent Control (ITK): 100% | Percent Control (CSNK2A1): 88% | Percent Control (INSR): 95% | Percent Control (CSNK1D): 90% | Percent Control (ULK3): 90% | Percent Control (LYN): 100% | Percent Control (PLK3): 86% | Percent Control (CSNK1A1L): 100% | Percent Control (FGFR4): 100% | Percent Control (EPHB1): 100% | Percent Control (YANK2): 3.5% | Percent Control (CDK3): 100% | Percent Control (MAPKAPK5): 100% | Percent Control (DDR1): 100% | Percent Control (MYO3B): 48% | Percent Control (ABL2): 100% | Percent Control (CAMK2D): 100% | Percent Control (FAK): 98% | Percent Control (DMPK2): 89% | Percent Control (ABL1(F317L); nonphosphorylated): 100% | Percent Control (ABL1(F317L); phosphorylated): 95% | Percent Control (HIPK1): 100% | Percent Control (SNARK): 19% | Percent Control (BIKE): 100% | Percent Control (FRK): 100% | Percent Control (ABL1(Q252H); nonphosphorylated): 86% | Percent Control (ABL1(Q252H); phosphorylated): 97% | Percent Control (PRKCD): 100% | Percent Control (YANK1): 5.3% | Percent Control (SgK110): 56% | Percent Control (MAPKAPK2): 100% | Percent Control (WEE1): 98%
